Source: patent US20240317792A1, “CYCLIC DINUCLEOTIDE METAL COMPOUND, AND PREPARATION AND APPLICATION THEREOF” (HANGZHOU XINGAO BIOTECHNOLOGY CO., LTD., priority 2022, published 2024)

What was measured:
T(CD8+) cells = assay: Flow cytometry of CD8+ T cells in spleen and lung after immunization; assay type: in vivo, C57BL/6 ordinary mice; conditions: after 14 days of immunization
Source text: (§1) Experimental animals: C57BL/6 ordinary mice, male, weighing 20-22 grams, 7-8 weeks old, purchased from Shanghai SLAC Laboratory Animal Co. Ltd.
(§2) The mice were randomly divided into 8 groups (10 mice in each group). The 8 groups were as listed follows: A: Negative control group (isotype control antibody group); B: blank group; C: cyclic dinucleotide group; D: [Li2(cGAMP)] group; E: [Mg(cGAMP)] group; F: [Zn(cGAMP)] group; G: [Mn(cGAMP)] group; and H: [Fe(cGAMP)] group. Isotype control flow antibody was purchased from eBiosciences, antibody magnetic strain was purchased from Militeny Biotech, and flow cytometry was purchased from BD company. After 14 days of immunization (immunization process was the same as that in the Example 12), spleens and lung tissues of the mice were collected, respectively mashed, filtered through 40 micron pores followed by 1000 rpm of centrifugation for 10 min to solate unlysed immune cells. Dendritic cells (DCs) (CD40\CD80\CD86\MHCII), T(CD8+) cells were separated, and added with corresponding FAC antibodies (diluted with Fluorescence-Activated Cell Sorting (FACS) buffer). Isotype control antibody was used as negative control. After antibody addition, the DCs and T (CD8+) cells were incubate for 1 h, centrifuged and washed by phosphate buffer saline (PBS) followed by analysis by the flow cytometry to sort suitable cells. Fluorescence intensity (MFI) of sorted cells was measured.

[1] = tested on: APP/PSI transgenic AD model mice; assay: Morris water maze spatial probe test, cognitive ability of AD model mice; assay type: in vivo; conditions: 10 mg/kg intraperitoneal injection once every 2 days for 60 days
Source text: Experimental materials, purchased from Shanghai Model Organisms Center Inc, were APP/PSI transgenic AD model mice, aged 4 months old and weighing 24-26 g. The AD model mice were randomly divided into 7 groups (10 mice in each group). The 7 groups were listed as follows: A: AD model group, as a negative control group (administration of normal saline); B: cGAMP group, as a positive control group (administration of cyclic dinucleotide); C: [Li2(cGAMP)] group (administration of lithium cyclic dinucleotide prepared in Example 1); D: [Mg(cGAMP)] group (administration of magnesium cyclic dinucleotide prepared in Example 2); E: [Zn(cGAMP)] group (administration of zinc cyclic dinucleotide prepared in Example 5); F: [Mn(cGAMP)] group (administration of manganese cyclic dinucleotide prepared in Example 3); G: [Fe(cGAMP)] group (administration of ferrous cyclic dinucleotide prepared in Example 4). The administration in groups C-G was performed as follows. The powdered cyclic dinucleotide metal compounds were prepared into solutions of required concentration with normal saline, respectively. The administration dosage was 10 mg/kg, and the administration was performed via intraperitoneal injection once every 2 days for 60 consecutive days.
The Morris water maze test was performed in a round pool, 1 m in diameter, 50 cm high and 30 cm deep with a white bottom of the pool. Water temperature of the Morris water maze was 23±2° C. Four equidistant points, N, E, S and W, were marked on a pool wall as four starting points for tests. The pool was divided into four quadrants, and a platform, which was equidistant from the pool wall and a center of the pool, was placed in the third quadrant. The platform was immersed under water at a depth of 1 cm, so that the platform was not visible. A lot of reference clues (the reference clues were triangles, quadrangles, circles, and diamonds with different colors placed in each quadrant) were pasted around the pool and kept constant for the AD model mice to locate the platform.
A place navigation test was performed for 6 days, and the AD model mice were subjected to training 4 times per day at fixed time spans. At the beginning of the training, the platform was placed in the […]. An AD model mouse was placed into the water facing the pool wall at any one of the four starting points. A record system was used to record time and a swimming path that the AD model mouse found the platform. The AD model mouse was placed into the water at different four starting points (in different quadrants) in the 4-time-training. The AD model mouse found the platform and rested on the platform for 10 seconds followed by next test. Or if the AD model mouse could not find the platform within 90 seconds (a latency was recorded as 90 seconds), the AD model mouse was guided to the platform by an experimenter and rested for 10 seconds followed by next test.
24 h after the place navigation test, the platform was removed. Then the AD model mouse was placed into the water in the third quadrant, the swimming path in 180 s was recorded. Remain time and a number of the AD model mouse crossing through a location of the platform of the AD model mouse in a target quadrant (the third quadrant) were recorded to observe the spatial localization ability of the AD model mouse. SPSS10.0 software was used to process, and one-way analysis of variance (ANOVA) was adopted to compare significance of difference between the 7 groups.

[2] = tested on: Dendritic cells (DCs) (CD40\CD80\CD86\MHCII); assay: Flow cytometry of dendritic cell activation markers after immunization; assay type: in vivo, C57BL/6 ordinary mice; conditions: fluorescence intensity (MFI), after 14 days of immunization
Source text: as §1, §2

SMILES	Lung (% CD8 + T cells) (T(CD8+) cells) [%]	Spleen (% CD8 + T cells) (T(CD8+) cells) [%]	Percentage of time of the AD model mice crossing through the platform in the third quadrant [1] [%]	Spleen CD40 [2]	Spleen CD80 [2]	Spleen CD86 [2]	Spleen MGCII [2]
Nc1nc2c(ncn2C2OC3COP(=O)([O-])OC4C(COP(=O)([O-])OC2C3O)OC(n2cnc3c(N)ncnc32)C4O)c(=O)[nH]1.[Fe+2] (stereo not drawn) [[Fe(cGAMP)], ferrous cyclic dinucleotide]	0.7 ± 0.3	6.9 ± 1.2	0.81 ± 0.23	236.8	134.6	24.1	247.1
Nc1nc2c(ncn2[C@@H]2O[C@@H]3COP(=O)([O-])O[C@H]4[C@@H](O)[C@H](n5cnc6c(N)ncnc65)O[C@@H]4COP(=O)([O-])O[C@@H]2[C@@H]3O)c(=O)[nH]1.[Li+].[Li+] [[Li2(cGAMP)], lithium cyclic dinucleotide]	0.6 ± 0.2	3.1 ± 0.3	0.91 ± 0.18	136.2	157.6	21.7	250.8
Nc1nc2c(ncn2[C@@H]2O[C@@H]3COP(=O)([O-])O[C@H]4[C@@H](O)[C@H](n5cnc6c(N)ncnc65)O[C@@H]4COP(=O)([O-])O[C@@H]2[C@@H]3O)c(=O)[nH]1.[Mg+2] [[Mg(cGAMP)], magnesium cyclic dinucleotide]	1.7 ± 0.3	6.2 ± 0.6	0.78 ± 0.10	156.6	234.6	36.8	338.2
Nc1nc2c(ncn2C2OC3COP(=O)([O-])OC4C(COP(=O)([O-])OC2C3O)OC(n2cnc3c(N)ncnc32)C4O)c(=O)[nH]1.[Mn+2] (stereo not drawn) [[Mn(cGAMP)], manganese cyclic dinucleotide]	0.8 ± 0.3	7.5 ± 1.3	0.83 ± 0.21	255.9	132.6	26.3	276.3
Nc1nc2c(ncn2[C@@H]2O[C@@H]3COP(=O)([O-])O[C@H]4[C@@H](O)[C@H](n5cnc6c(N)ncnc65)O[C@@H]4COP(=O)([O-])O[C@@H]2[C@@H]3O)c(=O)[nH]1.[Zn+2] [[Zn(cGAMP)], zinc cyclic dinucleotide]	1.6 ± 0.2	8.6 ± 1.8	0.86 ± 0.16	264.7	245.7	42.6	424.5
Nc1nc2c(ncn2[C@@H]2O[C@@H]3COP(=O)(O)O[C@H]4[C@@H](O)[C@H](n5cnc6c(N)ncnc65)O[C@@H]4COP(=O)(O)O[C@@H]2[C@@H]3O)c(=O)[nH]1 [cGAMP, 2′3′-cGAMP, reference compound]	0.5 ± 0.2	2.2 ± 0.2	0.62 ± 0.17	120.5	112.1	16.5	208.1
